The test system of test [1] is Plasmodium yoelii. The experiment in a line: Antimalarial activity against sporozoite stage of Plasmodium yoelii assessed as invasion of human HepG2 cells expressing CD81 incubated for 2 hrs prior to inoculation measured after 1 hr by immunofluorescence assay in presence of penicillin/streptomycin. It counts as functional, organism-based.
For test [2], the system named is Plasmodium berghei. In words: Antimalarial activity against gametocytic stage of Plasmodium berghei infected in blood assessed as inhibition of ookinete formation at 10 uM after 24 hrs by Giemsa staining-based microscopic analysis relative to control. It counts as functional.

As to `COc1cc(N[C@H](C)CCCN)c2nccc(C)c2c1Oc1ccc(Cl)c(Cl)c1`, the IC50 (usually the midpoint of a concentration-inhibition curve) in test [1] is less than 1 µM.

As for `CCc1nc(N)nc(N)c1OCCCOc1ccccc1CCC(=O)O`, in test [1], the IC50 is less than 1 µM.

For `CO[C@H]1O[C@@H]2O[C@@]3(C)CC[C@H]4[C@H](C)CC[C@@H]([C@H]1C)[C@@]24OO3` [ARTEMETHER], the IC50 in test [1] is less than 1 µM.

As for `C[C@H]1[C@@H](O)O[C@@H]2O[C@@]3(C)CC[C@H]4[C@H](C)CC[C@@H]1[C@@]24OO3` [ARTENIMOL], the IC50 in test [1] was less than 1 µM.

For the compound `C[C@H]1[C@H](OC(=O)CCC(=O)O)O[C@@H]2O[C@@]3(C)CC[C@H]4[C@H](C)CC[C@@H]1[C@@]24OO3` [ARTESUNATE], in test [1], the IC50 was less than 1 µM.

Consider `O=C1C(O)=C([C@H]2CC[C@H](c3ccc(Cl)cc3)CC2)C(=O)c2ccccc21` [ATOVAQUONE], for which the inhibition (commonly the percentage by which the read-out fell short of the control) at 10 µM in test [2] is less than 50%. Further, the IC50 in test [1] is less than 1 µM.

`CN(C)c1ccc2nc3ccc(N(C)C)cc3[s+]c2c1` [METHYLENE BLUE ANHYDROUS]: the inhibition at 10 µM in test [2] is less than 50%. Besides, in test [1], the IC50 was less than 1 µM.

Regarding `COc1cc(NC(C)CCCN)c2ncccc2c1` (configuration not stated) [PRIMAQUINE], in test [2], the inhibition at 10 µM is less than 50%. Besides, the IC50 in test [1] was less than 1 µM.

Take `CCc1nc(N)nc(N)c1-c1ccc(Cl)cc1` [PYRIMETHAMINE]: the inhibition at 10 µM in test [2] was less than 50%. The IC50 in test [1] was less than 1 µM.

In the case of `COc1ccc2nc3cc(Cl)ccc3c(Nc3cc(CN4CCCC4)c(O)c(CN4CCCC4)c3)c2n1` [PYRONARIDINE], in test [2], the inhibition at 10 µM is less than 50%. Moreover, in test [1], the IC50 is less than 1 µM.

`C=C[C@H]1CN2CC[C@H]1C[C@H]2[C@H](O)c1ccnc2ccc(OC)cc12` [QUININE]: the inhibition at 10 µM in test [2] was less than 50%.

Turning to `COc1cc(C)c2c(Oc3cccc(C(F)(F)F)c3)c(OC)cc(NC(C)CCCN)c2n1` (configuration not stated) [TAFENOQUINE], the IC50 in test [1] was less than 1 µM.

Source of the values: ChEMBL document CHEMBL2429731, “Using genetic methods to define the targets of compounds with antimalarial activity” (J Med Chem, 2013).
